Data from PMC9329436, “Optimization of the 4-anilinoquin(az)oline scaffold as epidermal growth factor receptor (EGFR) inhibitors for chordoma utilizing a toxicology profiling assay platform” (Scientific Reports, 2022).

Columns and labels:
Experiment in all cases: 33PanQinase activity assay
Assay type in all cases: biochemical
[1] = biological target: T1, Aurora-C (Homo sapiens, UniProt Q9UQB9); conditions: for Residual activity: Aurora-C, singlicate
T1 sequence (Q9UQB9 1-309): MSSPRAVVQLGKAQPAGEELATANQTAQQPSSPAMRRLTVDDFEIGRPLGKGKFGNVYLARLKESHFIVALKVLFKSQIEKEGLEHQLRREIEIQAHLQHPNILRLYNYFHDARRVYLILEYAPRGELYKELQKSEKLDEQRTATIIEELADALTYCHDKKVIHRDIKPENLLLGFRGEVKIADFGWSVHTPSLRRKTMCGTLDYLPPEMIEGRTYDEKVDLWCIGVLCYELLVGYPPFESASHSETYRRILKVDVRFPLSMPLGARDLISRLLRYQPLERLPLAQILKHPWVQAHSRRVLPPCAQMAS
Text: (§1) Table S4. Profiling of two compounds at two concentrations against 320 wild-type protein kinases; singlicate measurement; Residual activities (% of control).

[2] = biological target: T2, PRKG2 (Homo sapiens, UniProt Q13237); conditions: for Residual activity, PRKG2: kinase PRKG2, singlicate
T2 sequence (Q13237 1-762): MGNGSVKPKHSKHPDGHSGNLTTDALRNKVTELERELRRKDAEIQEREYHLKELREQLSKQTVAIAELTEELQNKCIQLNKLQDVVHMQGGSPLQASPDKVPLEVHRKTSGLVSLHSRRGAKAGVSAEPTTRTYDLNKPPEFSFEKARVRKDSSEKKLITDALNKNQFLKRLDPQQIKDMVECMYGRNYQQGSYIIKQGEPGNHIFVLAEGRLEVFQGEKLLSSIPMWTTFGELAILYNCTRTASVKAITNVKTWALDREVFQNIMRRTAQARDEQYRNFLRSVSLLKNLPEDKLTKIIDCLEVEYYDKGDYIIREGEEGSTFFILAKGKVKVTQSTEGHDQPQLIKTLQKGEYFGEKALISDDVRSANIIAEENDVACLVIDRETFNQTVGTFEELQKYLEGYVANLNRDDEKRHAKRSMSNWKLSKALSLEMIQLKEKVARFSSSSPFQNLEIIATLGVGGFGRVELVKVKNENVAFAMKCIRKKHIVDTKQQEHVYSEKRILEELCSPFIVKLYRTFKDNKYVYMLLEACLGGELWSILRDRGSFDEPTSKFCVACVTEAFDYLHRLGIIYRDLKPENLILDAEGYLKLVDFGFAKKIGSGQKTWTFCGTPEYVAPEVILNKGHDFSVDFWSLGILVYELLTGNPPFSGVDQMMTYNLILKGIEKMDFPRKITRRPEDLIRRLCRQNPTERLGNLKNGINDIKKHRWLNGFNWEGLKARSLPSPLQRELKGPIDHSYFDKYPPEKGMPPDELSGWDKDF
Text: as §1

[3] = biological target: T3, EPHB2 (Homo sapiens, UniProt P29323); conditions: for Residual activity: singlicate
T3 sequence (P29323 19-1055): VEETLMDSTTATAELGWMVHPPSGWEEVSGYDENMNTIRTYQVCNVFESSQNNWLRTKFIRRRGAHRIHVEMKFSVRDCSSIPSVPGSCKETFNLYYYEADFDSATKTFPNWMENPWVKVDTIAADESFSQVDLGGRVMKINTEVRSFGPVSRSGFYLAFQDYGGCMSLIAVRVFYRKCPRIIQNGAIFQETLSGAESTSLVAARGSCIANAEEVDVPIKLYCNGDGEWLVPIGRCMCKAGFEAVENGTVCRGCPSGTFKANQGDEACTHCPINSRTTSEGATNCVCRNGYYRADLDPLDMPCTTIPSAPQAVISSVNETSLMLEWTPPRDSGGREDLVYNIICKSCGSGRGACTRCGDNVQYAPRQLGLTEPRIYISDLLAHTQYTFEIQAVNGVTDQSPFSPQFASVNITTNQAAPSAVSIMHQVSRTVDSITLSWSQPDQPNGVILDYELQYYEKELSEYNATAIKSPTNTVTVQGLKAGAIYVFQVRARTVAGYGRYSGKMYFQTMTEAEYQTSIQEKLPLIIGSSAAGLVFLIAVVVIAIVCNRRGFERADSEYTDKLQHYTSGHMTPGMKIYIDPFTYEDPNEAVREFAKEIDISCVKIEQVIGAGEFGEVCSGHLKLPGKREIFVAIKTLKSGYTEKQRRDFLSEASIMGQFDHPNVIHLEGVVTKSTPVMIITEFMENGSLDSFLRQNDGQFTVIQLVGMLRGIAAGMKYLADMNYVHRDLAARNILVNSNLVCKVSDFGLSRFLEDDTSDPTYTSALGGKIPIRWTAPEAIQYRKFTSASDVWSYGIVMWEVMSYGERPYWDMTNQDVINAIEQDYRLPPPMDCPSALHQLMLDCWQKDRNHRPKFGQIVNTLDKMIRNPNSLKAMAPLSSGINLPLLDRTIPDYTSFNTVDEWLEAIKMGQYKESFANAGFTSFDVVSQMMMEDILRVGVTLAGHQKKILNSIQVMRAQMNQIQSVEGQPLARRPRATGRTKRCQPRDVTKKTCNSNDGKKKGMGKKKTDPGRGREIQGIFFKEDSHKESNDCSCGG
Text: as §1

[4] = biological target: NIK (Homo sapiens, UniProt Q99558); conditions: for Residual activity: NIK, singlicate
Text: as §1

[5] = biological target: PIM1 (Homo sapiens, UniProt P11309); conditions: for Residual activity: singlicate
Text: as §1

[6] = biological target: MKNK1 (Homo sapiens, UniProt Q9BUB5); conditions: for Residual activity: singlicate
Text: as §1

[7] = biological target: VEGFR2 (Homo sapiens, UniProt P35968); conditions: 10 μM
Text: as §1

Chain of MKNK1 (Q9BUB5 whole entry): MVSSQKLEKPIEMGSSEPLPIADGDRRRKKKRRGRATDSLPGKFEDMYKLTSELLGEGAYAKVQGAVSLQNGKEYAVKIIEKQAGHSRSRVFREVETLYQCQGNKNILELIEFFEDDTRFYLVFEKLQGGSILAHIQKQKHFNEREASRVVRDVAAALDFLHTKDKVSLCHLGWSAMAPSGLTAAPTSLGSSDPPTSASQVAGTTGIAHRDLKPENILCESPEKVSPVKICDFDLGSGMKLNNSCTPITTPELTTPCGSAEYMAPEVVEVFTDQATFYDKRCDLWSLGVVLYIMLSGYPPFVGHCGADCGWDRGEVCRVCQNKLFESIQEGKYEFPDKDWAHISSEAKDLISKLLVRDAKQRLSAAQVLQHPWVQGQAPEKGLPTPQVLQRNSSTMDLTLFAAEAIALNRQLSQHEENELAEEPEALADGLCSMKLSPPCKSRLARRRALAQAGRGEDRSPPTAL
Chain of NIK (Q99558 whole entry): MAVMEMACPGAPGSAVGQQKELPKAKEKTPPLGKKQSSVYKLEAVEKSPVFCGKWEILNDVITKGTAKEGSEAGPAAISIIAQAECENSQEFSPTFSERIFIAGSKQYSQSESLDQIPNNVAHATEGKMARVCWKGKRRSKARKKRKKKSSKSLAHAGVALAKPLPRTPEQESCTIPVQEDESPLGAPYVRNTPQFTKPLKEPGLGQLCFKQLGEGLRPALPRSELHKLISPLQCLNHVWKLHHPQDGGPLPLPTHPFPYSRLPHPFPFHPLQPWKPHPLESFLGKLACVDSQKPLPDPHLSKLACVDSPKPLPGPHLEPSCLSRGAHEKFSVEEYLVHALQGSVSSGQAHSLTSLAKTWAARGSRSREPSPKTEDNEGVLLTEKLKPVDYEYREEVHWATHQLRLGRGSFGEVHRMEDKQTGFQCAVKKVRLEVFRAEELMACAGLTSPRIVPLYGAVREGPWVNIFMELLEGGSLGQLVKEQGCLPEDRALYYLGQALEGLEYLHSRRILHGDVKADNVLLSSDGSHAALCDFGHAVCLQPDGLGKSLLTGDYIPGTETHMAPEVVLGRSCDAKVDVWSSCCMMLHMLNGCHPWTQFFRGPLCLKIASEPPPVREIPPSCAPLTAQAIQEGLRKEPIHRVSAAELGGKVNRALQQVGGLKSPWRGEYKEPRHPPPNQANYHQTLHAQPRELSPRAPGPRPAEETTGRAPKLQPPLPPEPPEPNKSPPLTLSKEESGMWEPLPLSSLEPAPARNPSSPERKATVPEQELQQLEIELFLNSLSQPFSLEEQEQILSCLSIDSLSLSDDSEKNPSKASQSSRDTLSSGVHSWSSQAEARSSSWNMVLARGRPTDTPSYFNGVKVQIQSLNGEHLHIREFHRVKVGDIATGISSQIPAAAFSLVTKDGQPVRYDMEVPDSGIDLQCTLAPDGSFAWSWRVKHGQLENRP
Chain of PIM1 (P11309 whole entry): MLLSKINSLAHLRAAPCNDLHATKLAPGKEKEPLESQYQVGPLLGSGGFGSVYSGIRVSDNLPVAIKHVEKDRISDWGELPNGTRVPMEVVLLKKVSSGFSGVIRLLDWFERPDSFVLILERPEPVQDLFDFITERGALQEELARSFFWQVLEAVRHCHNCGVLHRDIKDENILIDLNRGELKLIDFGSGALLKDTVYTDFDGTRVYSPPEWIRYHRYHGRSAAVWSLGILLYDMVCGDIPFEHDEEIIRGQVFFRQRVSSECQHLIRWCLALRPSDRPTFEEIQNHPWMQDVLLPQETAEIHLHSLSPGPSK
Chain of VEGFR2 (P35968 20-1356): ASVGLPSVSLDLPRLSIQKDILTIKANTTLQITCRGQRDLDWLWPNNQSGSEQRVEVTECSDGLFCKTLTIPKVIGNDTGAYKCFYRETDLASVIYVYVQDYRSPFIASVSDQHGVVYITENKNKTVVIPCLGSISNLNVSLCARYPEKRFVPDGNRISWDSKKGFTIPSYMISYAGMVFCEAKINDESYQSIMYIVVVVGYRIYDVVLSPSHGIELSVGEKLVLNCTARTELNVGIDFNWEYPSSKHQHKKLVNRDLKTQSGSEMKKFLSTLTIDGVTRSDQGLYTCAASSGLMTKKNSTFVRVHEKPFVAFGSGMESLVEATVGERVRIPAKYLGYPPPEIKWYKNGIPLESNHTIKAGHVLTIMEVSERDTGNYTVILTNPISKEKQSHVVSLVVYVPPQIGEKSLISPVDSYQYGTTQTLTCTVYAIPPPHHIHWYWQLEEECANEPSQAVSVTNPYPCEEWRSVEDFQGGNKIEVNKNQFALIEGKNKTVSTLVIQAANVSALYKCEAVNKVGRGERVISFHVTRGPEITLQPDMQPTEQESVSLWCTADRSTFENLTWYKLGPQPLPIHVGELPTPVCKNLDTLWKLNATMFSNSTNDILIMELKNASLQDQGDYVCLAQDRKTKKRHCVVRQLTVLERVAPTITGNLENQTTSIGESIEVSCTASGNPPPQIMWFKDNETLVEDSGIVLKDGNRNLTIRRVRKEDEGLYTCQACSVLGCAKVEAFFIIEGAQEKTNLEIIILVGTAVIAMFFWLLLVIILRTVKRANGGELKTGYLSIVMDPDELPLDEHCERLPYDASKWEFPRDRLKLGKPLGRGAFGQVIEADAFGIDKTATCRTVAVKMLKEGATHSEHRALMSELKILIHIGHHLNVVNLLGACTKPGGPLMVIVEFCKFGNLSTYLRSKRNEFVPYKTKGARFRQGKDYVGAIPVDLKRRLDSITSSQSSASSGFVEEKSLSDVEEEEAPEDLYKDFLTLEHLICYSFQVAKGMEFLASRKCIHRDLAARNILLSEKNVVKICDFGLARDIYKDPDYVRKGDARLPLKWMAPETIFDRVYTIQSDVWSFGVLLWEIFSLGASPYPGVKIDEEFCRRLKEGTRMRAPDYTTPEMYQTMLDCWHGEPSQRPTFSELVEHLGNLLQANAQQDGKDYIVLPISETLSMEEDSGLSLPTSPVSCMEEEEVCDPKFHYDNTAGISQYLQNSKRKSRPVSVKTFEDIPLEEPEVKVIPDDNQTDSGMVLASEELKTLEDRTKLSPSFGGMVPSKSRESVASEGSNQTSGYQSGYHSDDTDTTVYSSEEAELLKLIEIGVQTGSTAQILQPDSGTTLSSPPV

SMILES | Residual activity ([1]; 1.0E-06 M) | Residual activity ([1]; 1.0E-07 M) | PRKG2 inhibition ([2]; 10 μM) [%] | Residual activity, PRKG2 ([2]; assay conc. 1.0E-06 M) | Residual activity, PRKG2 ([2]; assay conc. 1.0E-07 M) | Residual activity ([3]; EPHB2, 1.0E-06 M) | Residual activity ([3]; EPHB2, 1.0E-07 M) | Residual activity ([4]; 1.0E-06 M) | Residual activity ([4]; 1.0E-07 M) | Residual activity ([5]; PIM1, 1.0E-06 M) | Residual activity ([5]; PIM1, 1.0E-07 M) | Residual activity ([6]; MKNK1, 1.0E-06 M) | Residual activity ([6]; MKNK1, 1.0E-07 M) | Aurora-C inhibition ([1]; 10 μM) [%] | EPHB2 inhibition ([3]; 10 μM) [%] | NIK inhibition ([4]; 10 μM) [%] | PIM1 inhibition ([5]; 10 μM) [%] | MKNK1 inhibition ([6]; 10 μM) [%] | VEGFR2 inhibition [7] [%]
C#Cc1cc(Nc2ncnc3cc(I)ccc23)ccc1Cl [Compound 41] | 70 % of control | 89 % of control | > 50 | 20 % of control | 100 % of control | 58 % of control | 79 % of control | 120 % of control | 126 % of control | 71 % of control | 85 % of control | 63 % of control | 79 % of control |  |  |  |  |  | 
C#Cc1cc(Nc2ncnc3cc(OC)c(OC)cc23)ccc1Cl [Compound 45] | 85 % of control | 98 % of control |  | 80 % of control | 118 % of control | 11 % of control | 50 % of control | 122 % of control | 127 % of control | 38 % of control | 73 % of control | 30 % of control | 63 % of control | > 50 | > 50 | > 50 | > 50 | > 50 | > 50
